# Tests used:
# [1] = test system: CD8+ T cells; experiment: In vitro immunogenicity of HLA-A*24 peptides (CD8+ T-cell priming with aAPCs, multimer staining); assay type: cell-based, human
# Procedure: (§1) In order to obtain information regarding the immunogenicity of the TUMAPs of the present invention, the inventors performed investigations using an in vitro T-cell priming assay based on repeated stimulations of CD8+ T cells with artificial antigen presenting cells (aAPCs) loaded with peptide/MHC complexes and anti-CD28 antibody.
# (§2) Generation of pMHC/anti-CD28 coated beads, T-cell stimulations and readout was performed in a highly defined in vitro system using four different pMHC molecules per stimulation condition and 8 different pMHC molecules per readout condition.
# (§3) The purified co-stimulatory mouse IgG2a anti human CD28 Ab 9.3 (Jung et al., 1987) was chemically biotinylated using Sulfo-N-hydroxysuccinimidobiotin as recommended by the manufacturer (Perbio, Bonn, Germany). Beads used were 5.6 μm diameter streptavidin coated polystyrene particles (Bangs Laboratories, Illinois, USA).
# (§4) 800.000 beads/200 μl were coated in 96-well plates in the presence of 4×12.5 ng different biotin-pMHC, washed and 600 ng biotin anti-CD28 were added subsequently in a volume of 200 μl. Stimulations were initiated in 96-well plates by co-incubating 1×10^6 CD8+ T cells with 2×10^5 washed coated beads in 200 μl TCM supplemented with 5 ng/ml IL-12 (PromoCell) for 3 days at 37° C. Half of the medium was then exchanged by fresh TCM supplemented with 80 U/ml IL-2 and incubating was continued for 4 days at 37° C. This stimulation cycle was performed for a total of three times. For the pMHC multimer readout using 8 different pMHC molecules per condition, a two-dimensional combinatorial coding approach was used as previously described (Andersen et al., 2012) with minor modifications encompassing coupling to 5 different fluorochromes. Finally, multimeric analyses were performed by staining the cells with Live/dead near IR dye (Invitrogen, Karlsruhe, Germany), CD8-FITC antibody clone SK1 (BD, Heidelberg, Germany) and fluorescent pMHC multimers. For analysis, a BD LSRII SORP cytometer equipped with appropriate lasers and filters was used. Peptide specific cells were calculated as percentage of total CD8+ cells. Evaluation of multimeric analysis was done using the FlowJo software (Tree Star, Oregon, USA). In vitro priming of specific multimer+CD8+ lymphocytes was detected by comparing to negative control stimulations.
# Exemplary flow cytometry results after TUMAP-specific multimer staining for 3 peptides of the invention are shown in FIGS. 3A-3E together with corresponding negative controls.
# [2] = test system: CD8+ T cells; experiment: In vitro immunogenicity of HLA-A*02 peptides (CD8+ T-cell priming with aAPCs, multimer staining); assay type: cell-based, human
# Text: as §1
# In order to perform in vitro stimulations by artificial antigen presenting cells loaded with peptide-MHC complex (pMHC) and anti-CD28 antibody, the inventors first isolated CD8+ T cells from fresh HLA-A*02 leukapheresis products via positive selection using CD8 microbeads (Miltenyi Biotec, Bergisch-Gladbach, Germany) of healthy donors obtained from the University clinics Mannheim, Germany, after informed consent.
# PBMCs and isolated CD8+ lymphocytes were incubated in T-cell medium (TCM) until use consisting of RPMI-Glutamax (Invitrogen, Karlsruhe, Germany) supplemented with 10% heat inactivated human AB serum (PAN-Biotech, Aidenbach, Germany), 100 U/ml Penicillin/100 μg/ml Streptomycin (Cambrex, Cologne, Germany), 1 mM sodium pyruvate (CC Pro, Oberdorla, Germany), 20 μg/ml Gentamycin (Cambrex). 2.5 ng/ml IL-7 (PromoCell, Heidelberg, Germany) and 10 U/ml IL-2 (Novartis Pharma, Nurnberg, Germany) were also added to the TCM at this step.
# as §2, §3, §4
Substance,in vitro immunogenicity: donors [1],in vitro immunogenicity: wells [1],in vitro immunogenicity: donors [2],in vitro immunogenicity: wells [2]
TRIM11-001 (IFLDYEAGHLSF; listed as Homo sapiens),+ (<20% = +),+ (<20% = +),–,–
DCSTA-001 (KYIEAIQWI; listed as Homo sapiens),++++ (>= 70% = ++++),++ (20%-49% = ++),–,–
VFMKDGFFYF (listed as Homo sapiens) [SEQ ID No. 34],++ (20%-49% = ++),+ (<20% = +),–,–
COL12A1-003 (SYSIGIANF; listed as Homo sapiens),++++ (>= 70% = ++++),+ (<20% = +),–,–
COLEC12-001 (IYAGQWNDF; listed as Homo sapiens),+++ (50%-69% = +++),+ (<20% = +),–,–
TYKYVDINTF (listed as Homo sapiens) [SEQ ID No. 159],+++ (50%-69% = +++),+ (<20% = +),–,–
GLS-001 (DYIPQLAKF; listed as Homo sapiens),++++ (>= 70% = ++++),+ (<20% = +),–,–
TPS-001 (IYTRVTYYL; listed as Homo sapiens),++++ (>= 70% = ++++),++ (20%-49% = ++),–,–
RYISPDQLADL (listed as Homo sapiens) [SEQ ID No. 47],+++ (50%-69% = +++),+ (<20% = +),–,–
ABCC1-001 (VYVTIDENNIL; listed as Homo sapiens),++ (20%-49% = ++),+ (<20% = +),–,–
ZBED5-001 (AYKDKDISFF; listed as Homo sapiens),++++ (>= 70% = ++++),+ (<20% = +),–,–
YYTKGFALLNF (listed as Homo sapiens) [SEQ ID No. 29],+++ (50%-69% = +++),+ (<20% = +),–,–
PSMA4-001 (LYIGWDKHYGF; listed as Homo sapiens),++++ (>= 70% = ++++),+ (<20% = +),–,–
DYR-001 (VYTZIQSRF; listed as Homo sapiens),++ (20%-49% = ++),+ (<20% = +),–,–
TUBGCP3-001 (FYQGIVQQF; listed as Homo sapiens),++ (20%-49% = ++),+ (<20% = +),–,–
FAM83A-001 (PFLQASPHF; listed as Homo sapiens),++++ (>= 70% = ++++),++ (20%-49% = ++),–,–
COL6A3-012 (RYPPPVREF; listed as Homo sapiens),++++ (>= 70% = ++++),++ (20%-49% = ++),–,–
TMEM43-001 (KLLSDPNYGV; listed as Homo sapiens),–,–,++++ (>= 70% = ++++),+ (<20% = +)
CCNB2-001 (ILVDWLVQV; listed as Homo sapiens),–,–,++++ (>= 70% = ++++),++ (20%-49% = ++)
TGFBI-001 (ALFVRLLALA; listed as Homo sapiens),–,–,++++ (>= 70% = ++++),++ (20%-49% = ++)
KILEDVVGV (listed as Homo sapiens) [SEQ ID No. 130],–,–,++++ (>= 70% = ++++),++ (20%-49% = ++)
ALVQDLAKA (listed as Homo sapiens) [SEQ ID No. 131],–,–,++++ (>= 70% = ++++),++ (20%-49% = ++)
DONSON-001 (VLYPHEPTAV; listed as Homo sapiens),–,–,++++ (>= 70% = ++++),+ (<20% = +)
COL6A3-010 (KLLPYIVGV; listed as Homo sapiens),–,–,++++ (>= 70% = ++++),++ (20%-49% = ++)

Substance,in vitro immunogenicity: donors [1],in vitro immunogenicity: wells [1],in vitro immunogenicity: donors [2],in vitro immunogenicity: wells [2]
KIIGIMEEV (listed as Homo sapiens) [SEQ ID No. 95],–,–,++++ (>= 70% = ++++),++++ (>= 70% = ++++)
SERPINB3-001 (KLFGEKTYL),–,–,+++ (50%-69% = +++),+ (<20% = +)
ADAM8-001 (KLLTEVHAA; listed as Homo sapiens),–,–,++++ (>= 70% = ++++),+ (<20% = +)
LIFDLGGGTFDV (listed as Homo sapiens) [SEQ ID No. 16],–,–,+++ (50%-69% = +++),+ (<20% = +)
ERO-001 (LLLEILHEI; listed as Homo sapiens),–,–,+++ (50%-69% = +++),+ (<20% = +)
GBP5-001 (SLLSELQHA; listed as Homo sapiens),–,–,++ (20%-49% = ++),+ (<20% = +)
TACC3-001 (KLVEFDFLGA; listed as Homo sapiens),–,–,+++ (50%-69% = +++),+ (<20% = +)
FZD-001 (VLAPLFVYL; listed as Homo sapiens),–,–,++++ (>= 70% = ++++),+++ (50%-69% = +++)
MAGEF1-001 (ILFPDIIARA; listed as Homo sapiens),–,–,++++ (>= 70% = ++++),+++ (50%-69% = +++)
RLDDLKMTV (listed as Homo sapiens) [SEQ ID No. 125],–,–,++++ (>= 70% = ++++),+ (<20% = +)
SF3B3-001 (ELDRTPPEV; listed as Homo sapiens),–,–,++++ (>= 70% = ++++),++ (20%-49% = ++)
TLLDFINAV (listed as Homo sapiens) [SEQ ID No. 108],–,–,+++ (50%-69% = +++),+ (<20% = +)
WNT5A-001 (AMSSKFFLV; listed as Homo sapiens),–,–,++++ (>= 70% = ++++),++ (20%-49% = ++)
LIQDRVAEV (listed as Homo sapiens) [SEQ ID No. 14],–,–,++++ (>= 70% = ++++),+ (<20% = +)
COL12A1-002 (FLVDGSWSV; listed as Homo sapiens),–,–,++ (20%-49% = ++),+ (<20% = +)
YLNVQVKEL (listed as Homo sapiens) [SEQ ID No. 11],–,–,++++ (>= 70% = ++++),+ (<20% = +)
ILQDRLNQV (listed as Homo sapiens) [SEQ ID No. 152],–,–,+++ (50%-69% = +++),+ (<20% = +)
MXRA5-001 (TLSSIKVEV; listed as Homo sapiens),–,–,++++ (>= 70% = ++++),+ (<20% = +)
KLDETNNTL (listed as Homo sapiens) [SEQ ID No. 158],–,–,++ (20%-49% = ++),+ (<20% = +)
TLFPVRLLV (listed as Homo sapiens) [SEQ ID No. 97],–,–,++++ (>= 70% = ++++),+++ (50%-69% = +++)
VLTSDSPAL (listed as Homo sapiens) [SEQ ID No. 19],–,–,++++ (>= 70% = ++++),+ (<20% = +)
KIQEMQHFL (listed as Homo sapiens) [SEQ ID No. 116],–,–,++++ (>= 70% = ++++),+ (<20% = +)
KIQEILTQV (listed as Homo sapiens) [SEQ ID No. 120],–,–,++++ (>= 70% = ++++),+ (<20% = +)

# Source: patent US10526389B2, “Peptides and combinations of peptides for use in immunotherapy against lung cancer, including NSCLC and other cancers” (Immatics Biotechnologies GmbH, priority 2015, dated 2020)
